According to patent publication US9127015B2, “Tricyclopyrazole derivatives” (NERVIANO MEDICAL SCIENCES S.R.L., priority 2009, dated 2015):
“And” between values parts separate entries of the source, which are not always exact repeats. Identical values can stand only once.

Columns and labels:
Assay in all cases: Kinase inhibition assay, IC50 (Table A)
Format in all cases: biochemical
[1] = target: ACK1 (Homo sapiens, UniProt Q07912); conditions: Enzyme ACK1
Description: (§1) The inhibiting activity of putative kinase inhibitors and the potency of selected compounds is determined through a method of assay based on the use of the Kinase-Glo® Luminescent Kinase Assay (commercially available from Promega corporation and described in Koresawa, M. and Okabe, T. (2004) High-throughput screening with quantitation of ATP consumption: A universal non-radioisotope, homogeneous assay for protein kinase. Assay Drug Dev. Technol. 2, 153-60).
(§2) The inhibitory activity of putative kinase inhibitors and the potency of selected compounds were also determined using a trans-phosphorylation assay.
(§3) Specific peptide or protein substrates are trans-phosphorylated by their specific ser-thr or tyr kinase in the presence of ATP traced with ^33P-γ-ATP, and in the presence of their own optimal buffer and cofactors. At the end of the phosphorylation reaction, more than 98% unlabeled ATP and radioactive ATP is captured by an excess of the ion exchange dowex resin; the resin then settles down to the bottom of the reaction plate by gravity. Supernatant is subsequently withdrawn and transferred into a counting plate, then evaluated by β-counting.
(§4) Reaction conditions are target (enzyme) dependent and thus undergo individual adaptations. Also the buffer conditions may vary depending on the kinase of interest. The assay can be used with virtually any kinase and substrate combination and is suitable for all type of protein kinases, such as ABL, ACK1, AKT1, ALK, AUR1, AUR2, BRK, BUB1, CDC7/DBF4, CDK21CYCA, CHK1, CK2, EEF2K, EGFR1, EphA2, EphB4, ERK2, FAK, FGFR1, FLT3, GSK3beta, Haspin, IGFR1, IKK2, IR, JAK1, JAK2, JAK3, KIT, LCK, LYN, MAPKAPK2, MELK, MET, MNK2, MPSI, MST4, NEK6, NIM1, P38alpha, PAK-4, PDGFR, PDK1, PERK, PIM1, PIM2, PKAalpha, PKCbeta, PLK1, RET, ROS1, SULU1, Syk, TLK2, TRKA, TYK, VEGFR2, VEGFR3, ZAP70.

[2] = target: ABL (Homo sapiens, UniProt P00519); conditions: Enzyme ABL
ABL, sequence (P00519 whole entry): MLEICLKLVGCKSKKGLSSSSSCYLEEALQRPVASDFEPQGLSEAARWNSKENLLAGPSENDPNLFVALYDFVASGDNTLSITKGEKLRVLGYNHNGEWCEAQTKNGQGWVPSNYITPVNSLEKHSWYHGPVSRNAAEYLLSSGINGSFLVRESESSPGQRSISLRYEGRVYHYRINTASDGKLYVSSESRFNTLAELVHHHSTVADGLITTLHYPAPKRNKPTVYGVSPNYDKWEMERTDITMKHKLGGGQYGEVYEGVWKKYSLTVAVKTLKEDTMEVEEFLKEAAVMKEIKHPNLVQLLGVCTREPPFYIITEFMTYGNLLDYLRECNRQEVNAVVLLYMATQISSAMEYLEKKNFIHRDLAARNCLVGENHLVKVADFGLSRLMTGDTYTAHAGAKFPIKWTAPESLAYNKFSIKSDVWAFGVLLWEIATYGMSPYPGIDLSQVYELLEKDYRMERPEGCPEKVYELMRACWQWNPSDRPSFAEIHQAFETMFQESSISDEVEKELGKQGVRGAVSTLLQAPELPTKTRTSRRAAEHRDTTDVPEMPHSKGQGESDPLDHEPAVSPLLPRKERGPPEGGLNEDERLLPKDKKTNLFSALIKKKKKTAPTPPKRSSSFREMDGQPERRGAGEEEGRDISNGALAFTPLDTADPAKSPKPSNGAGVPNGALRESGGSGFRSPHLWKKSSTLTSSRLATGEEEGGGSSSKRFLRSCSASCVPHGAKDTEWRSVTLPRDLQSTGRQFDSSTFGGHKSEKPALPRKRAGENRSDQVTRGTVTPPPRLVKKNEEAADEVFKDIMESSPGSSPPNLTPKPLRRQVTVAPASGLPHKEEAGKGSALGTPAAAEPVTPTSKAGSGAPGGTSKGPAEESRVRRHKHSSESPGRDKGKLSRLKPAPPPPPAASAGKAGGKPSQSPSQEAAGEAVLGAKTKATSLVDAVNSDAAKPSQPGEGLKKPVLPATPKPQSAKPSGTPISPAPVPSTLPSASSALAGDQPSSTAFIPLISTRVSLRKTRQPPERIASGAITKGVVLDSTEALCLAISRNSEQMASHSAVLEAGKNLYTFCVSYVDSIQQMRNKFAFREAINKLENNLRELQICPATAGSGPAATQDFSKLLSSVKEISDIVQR
Description: as §1, §2, §3, §4

[3] = target: BRK (Homo sapiens, UniProt Q13882); conditions: Enzyme BRK
BRK, sequence (Q13882 whole entry): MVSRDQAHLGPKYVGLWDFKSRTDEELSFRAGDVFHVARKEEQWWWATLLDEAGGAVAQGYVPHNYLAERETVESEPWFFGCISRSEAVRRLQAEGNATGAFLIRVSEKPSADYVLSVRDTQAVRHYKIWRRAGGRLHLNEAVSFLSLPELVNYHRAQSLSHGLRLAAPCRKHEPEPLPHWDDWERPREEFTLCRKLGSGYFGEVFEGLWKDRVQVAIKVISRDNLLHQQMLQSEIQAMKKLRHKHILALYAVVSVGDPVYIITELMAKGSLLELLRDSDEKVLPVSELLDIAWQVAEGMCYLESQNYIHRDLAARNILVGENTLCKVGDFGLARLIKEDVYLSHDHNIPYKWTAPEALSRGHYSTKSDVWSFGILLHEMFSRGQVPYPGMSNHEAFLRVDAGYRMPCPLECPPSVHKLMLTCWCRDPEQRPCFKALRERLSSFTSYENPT
Description: as §1, §2, §3, §4

[4] = target: KIT (Homo sapiens, UniProt P10721); conditions: Enzyme KIT
KIT, sequence (P10721 26-976): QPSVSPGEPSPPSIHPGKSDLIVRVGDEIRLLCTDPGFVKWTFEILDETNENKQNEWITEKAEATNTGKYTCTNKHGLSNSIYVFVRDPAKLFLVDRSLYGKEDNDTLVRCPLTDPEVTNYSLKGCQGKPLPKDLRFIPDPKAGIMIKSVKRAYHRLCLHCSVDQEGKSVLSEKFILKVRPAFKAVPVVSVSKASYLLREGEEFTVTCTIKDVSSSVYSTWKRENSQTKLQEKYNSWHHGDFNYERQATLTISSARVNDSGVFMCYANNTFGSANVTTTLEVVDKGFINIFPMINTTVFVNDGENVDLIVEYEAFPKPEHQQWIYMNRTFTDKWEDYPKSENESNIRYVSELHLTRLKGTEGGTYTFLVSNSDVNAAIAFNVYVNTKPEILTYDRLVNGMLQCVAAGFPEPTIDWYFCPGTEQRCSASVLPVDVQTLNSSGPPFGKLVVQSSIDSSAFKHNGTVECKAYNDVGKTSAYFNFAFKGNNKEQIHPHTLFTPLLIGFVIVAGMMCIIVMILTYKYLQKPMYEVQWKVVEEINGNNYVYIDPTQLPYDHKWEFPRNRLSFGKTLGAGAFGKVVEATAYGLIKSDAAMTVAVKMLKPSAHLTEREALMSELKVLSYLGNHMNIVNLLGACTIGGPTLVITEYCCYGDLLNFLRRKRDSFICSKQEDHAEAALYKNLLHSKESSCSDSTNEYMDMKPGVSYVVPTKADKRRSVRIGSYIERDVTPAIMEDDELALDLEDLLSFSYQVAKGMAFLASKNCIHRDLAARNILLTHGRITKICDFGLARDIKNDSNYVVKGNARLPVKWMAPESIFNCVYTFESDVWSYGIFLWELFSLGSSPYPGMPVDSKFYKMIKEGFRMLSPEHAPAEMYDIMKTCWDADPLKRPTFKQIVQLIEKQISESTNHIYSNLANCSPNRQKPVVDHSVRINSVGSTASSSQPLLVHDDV
Description: as §1, §2, §3, §4

[5] = target: LCK (Homo sapiens, UniProt P06239); conditions: Enzyme LCK
LCK, sequence (P06239 whole entry): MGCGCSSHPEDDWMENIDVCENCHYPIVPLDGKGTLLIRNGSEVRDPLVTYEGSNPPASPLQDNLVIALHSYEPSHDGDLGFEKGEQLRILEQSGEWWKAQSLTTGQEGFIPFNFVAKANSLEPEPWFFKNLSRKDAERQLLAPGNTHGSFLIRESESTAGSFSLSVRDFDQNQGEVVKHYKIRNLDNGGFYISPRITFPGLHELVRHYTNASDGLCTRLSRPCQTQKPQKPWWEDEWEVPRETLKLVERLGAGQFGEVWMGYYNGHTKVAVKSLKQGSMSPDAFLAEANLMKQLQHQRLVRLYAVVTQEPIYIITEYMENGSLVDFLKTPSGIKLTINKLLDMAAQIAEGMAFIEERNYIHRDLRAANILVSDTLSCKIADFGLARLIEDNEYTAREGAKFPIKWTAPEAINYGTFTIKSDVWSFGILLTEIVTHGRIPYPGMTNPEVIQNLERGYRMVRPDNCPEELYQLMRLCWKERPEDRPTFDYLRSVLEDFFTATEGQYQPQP
Description: as §1, §2, §3, §4

ACK1, sequence (Q07912 whole entry): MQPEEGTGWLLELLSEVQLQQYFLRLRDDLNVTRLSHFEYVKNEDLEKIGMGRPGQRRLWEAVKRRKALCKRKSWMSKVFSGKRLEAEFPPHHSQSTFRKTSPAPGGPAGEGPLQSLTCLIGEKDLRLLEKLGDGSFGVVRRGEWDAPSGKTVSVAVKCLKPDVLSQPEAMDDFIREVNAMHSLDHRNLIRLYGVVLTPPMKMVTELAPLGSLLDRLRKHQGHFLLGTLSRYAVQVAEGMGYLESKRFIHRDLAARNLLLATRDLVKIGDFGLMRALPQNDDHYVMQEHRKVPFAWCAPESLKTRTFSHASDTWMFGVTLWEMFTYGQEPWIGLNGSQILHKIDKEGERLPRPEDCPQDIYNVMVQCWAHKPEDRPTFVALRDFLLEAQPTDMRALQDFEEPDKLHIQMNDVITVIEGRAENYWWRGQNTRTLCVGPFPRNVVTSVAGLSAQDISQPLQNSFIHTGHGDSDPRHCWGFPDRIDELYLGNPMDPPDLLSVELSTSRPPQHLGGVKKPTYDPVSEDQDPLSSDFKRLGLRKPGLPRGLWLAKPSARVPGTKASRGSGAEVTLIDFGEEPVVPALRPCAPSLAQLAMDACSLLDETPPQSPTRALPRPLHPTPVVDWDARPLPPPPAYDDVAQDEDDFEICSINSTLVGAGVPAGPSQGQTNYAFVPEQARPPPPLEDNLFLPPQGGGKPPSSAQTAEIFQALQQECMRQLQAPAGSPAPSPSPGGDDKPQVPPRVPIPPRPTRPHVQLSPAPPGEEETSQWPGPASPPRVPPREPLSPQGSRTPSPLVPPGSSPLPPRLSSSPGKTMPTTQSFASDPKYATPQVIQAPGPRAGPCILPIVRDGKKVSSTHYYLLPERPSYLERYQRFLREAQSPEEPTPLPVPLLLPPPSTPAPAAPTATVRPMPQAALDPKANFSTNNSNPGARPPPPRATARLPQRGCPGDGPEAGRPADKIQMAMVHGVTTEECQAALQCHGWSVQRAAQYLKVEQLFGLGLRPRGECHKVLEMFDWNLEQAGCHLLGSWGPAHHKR

IC50 [1]	Compound	also measured
750 nM	Cc1cc(C)c(C(=O)Nc2n[nH]c3c2CCn2cc(C(=O)N4CCCC4)cc2-3)c(C)c1 [Example A39-M1-B8]	
6560 nM	Cc1ccc(C(=O)Nc2n[nH]c3c2CCn2cc(C(=O)NC4CC4)cc2-3)c(C)c1 [Example A35-M1-B30]	
960 nM	O=C(NCC1CC1)c1cc2n(c1)CCc1c(NC(=O)c3ccccc3Cl)n[nH]c1-2 [Example A5-M1-B41]	IC50 [2]: 400 nM; IC50 [3]: 4350 nM; IC50 [4]: 1830 nM; IC50 [5]: 1150 nM
1940 nM	CC(C)CNC(=O)c1cc2n(c1)CCc1c(NC(=O)c3ccccc3Cl)n[nH]c1-2 [Example A5-M1-B39]	
1410 nM	CCN(CC)C(=O)c1cc2n(c1)CCc1c(NC(=O)c3ccccc3C)n[nH]c1-2 [Example A21-M1-B17]	
	O=C(NCCc1ccc(Cl)cc1)c1cc2n(c1)CCc1c(NC(=O)c3ccco3)n[nH]c1-2 [Example A9-M1-B13]	IC50 [4]: 5850 nM
3040 nM	O=C(NCc1ccccn1)c1cc2n(c1)CCc1c(NC(=O)c3ccccc3Cl)n[nH]c1-2 [Example A5-M1-B26]	
3060 nM	CCCN1CCN(C(=O)c2cc3n(c2)CCc2c(NC(=O)c4ccccc4F)n[nH]c2-3)CC1 [Example A20-M1-B32]	
2160 nM	CCN(CC)C(=O)c1cc2n(c1)CCc1c(NC(=O)c3ccccc3Cl)n[nH]c1-2 [Example A5-M1-B17]	
3160 nM	O=C(NCCN1CCCCC1)c1cc2n(c1)CCc1c(NC(=O)c3ccccc3Cl)n[nH]c1-2 [Example A5-M1-B31]	
1040 nM	O=C(Nc1n[nH]c2c1CCn1cc(C(=O)N3CCCC3)cc1-2)c1ccccc1F [Example A20-M1-B8]	IC50 [2]: 2430 nM; IC50 [4]: 2020 nM
5910 nM	Cc1ccc(C(=O)Nc2n[nH]c3c2CCn2cc(C(=O)N4CCOCC4)cc2-3)c(C)c1 [Example A35-M1-B7]	
	O=C(NCc1cccs1)c1cc2n(c1)CCc1c(NC(=O)c3ccc4c(c3)OCO4)n[nH]c1-2 [Example A11-M1-B16]	IC50 [4]: 2660 nM
1560 nM	Cc1ccccc1C(=O)Nc1n[nH]c2c1CCCn1cc(C(=O)NCC3CC3)cc1-2 [Example A21-M2-B41]	
440 nM and 240 nM	O=C(NCC1CC1)c1cc2n(c1)CCCc1c(NC(=O)c3ccccc3Cl)n[nH]c1-2 [Example A5-M2-B41]	
5540 nM	Cc1cc(C)c(C(=O)Nc2n[nH]c3c2CCn2cc(C(=O)N4CCC(N5CCCCC5)CC4)cc2-3)c(C)c1 [Example A39-M1-B34]	
1920 nM	O=C(NCc1ccncc1)c1cc2n(c1)CCc1c(NC(=O)c3ccccc3Cl)n[nH]c1-2 [Example A5-M1-B25]	
2870 nM	Cc1ccc(C(=O)Nc2n[nH]c3c2CCn2cc(C(=O)NCC4CC4)cc2-3)c(C)c1 [Example A35-M1-B41]	
630 nM and 480 nM	O=C(Nc1n[nH]c2c1CCn1cc(C(=O)N3CCCC3)cc1-2)c1ccccc1Cl [Example A5-M1-B8]	IC50 [2]: 1860 nM and 2230 nM; IC50 [4]: 5980 nM
1210 nM	CCCN1CCN(C(=O)c2cc3n(c2)CCc2c(NC(=O)c4ccc(C)cc4C)n[nH]c2-3)CC1 [Example A35-M1-B32]	
3340 nM	C=CCNC(=O)c1cc2n(c1)CCc1c(NC(=O)c3ccccc3C)n[nH]c1-2 [Example A21-M1-B36]	IC50 [2]: 3230 nM; IC50 [4]: 5030 nM; IC50 [5]: 5140 nM
440 nM	O=C(Nc1n[nH]c2c1CCn1cc(C(=O)N3CCCCC3)cc1-2)c1ccccc1Cl [Example A5-M1-B42]	IC50 [2]: 1790 nM; IC50 [3]: 3640 nM; IC50 [4]: 6610 nM
	O=C(NCc1cccs1)c1cc2n(c1)CCc1c(NC(=O)c3cccc(F)c3)n[nH]c1-2 [Example A8-M1-B16]	IC50 [4]: 2680 nM
4330 nM	O=C(NC1CCCC1)c1cc2n(c1)CCc1c(NC(=O)c3ccccc3Cl)n[nH]c1-2 [Example A5-M1-B28]	
1730 nM	CC(C)N1CCN(C(=O)c2cc3n(c2)CCc2c(NC(=O)c4ccccc4Cl)n[nH]c2-3)CC1 [Example A5-M1-B40]	
2450 nM	Cc1ccccc1C(=O)Nc1n[nH]c2c1CCn1cc(C(=O)NCC3CC3)cc1-2 [Example A21-M1-B41]	
740 nM	C=CCNC(=O)c1cc2n(c1)CCCc1c(NC(=O)c3ccccc3Cl)n[nH]c1-2 [Example A5-M2-B36]	

IC50 [1]	Compound	also measured
2470 nM	COCCNC(=O)c1cc2n(c1)CCCc1c(NC(=O)c3ccccc3Cl)n[nH]c1-2 [Example A5-M2-B33]	
3980 nM	C=CCNC(=O)c1cc2n(c1)CCCc1c(NC(=O)c3ccc(C)cc3C)n[nH]c1-2 [Example A35-M2-B36]	
550 nM	CC(C)CNC(=O)c1cc2n(c1)CCCc1c(NC(=O)c3ccccc3Cl)n[nH]c1-2 [Example A5-M2-B39]	
1890 nM	COc1ccccc1C(=O)Nc1n[nH]c2c1CCn1cc(C(=O)N3CCCC3)cc1-2 [Example A6-M1-B8]	
3130 nM	Cc1ccc(C(=O)Nc2n[nH]c3c2CCn2cc(C(=O)NC(C)C)cc2-3)c(C)c1 [Example A35-M1-B10]	
	CN1CCN(c2ccc(C(=O)Nc3n[nH]c4c3CCn3cc(C(=O)N(C)C)cc3-4)cc2)CC1 [Example A16-M1-B19]	IC50 [4]: 4470 nM
1410 nM	Cc1ccc(C(=O)Nc2n[nH]c3c2CCCn2cc(C(=O)NCC(C)C)cc2-3)c(C)c1 [Example A35-M2-B39]	
	O=C(NCC1CC1)c1cc2n(c1)CCc1c(NC(=O)c3c(Cl)cccc3Cl)n[nH]c1-2 [Example A38-M1-B41]	IC50 [5]: 4130 nM
	O=C(NCc1cccs1)c1cc2n(c1)CCc1c(NC(=O)c3ccco3)n[nH]c1-2 [Example A9-M1-B16]	IC50 [4]: 850 nM
1000 nM	CCN1CCN(C(=O)c2cc3n(c2)CCc2c(NC(=O)c4ccccc4Cl)n[nH]c2-3)CC1 [Example A5-M1-B37]	IC50 [2]: 5100 nM; IC50 [3]: 5770 nM
3820 nM	COCCNC(=O)c1cc2n(c1)CCCc1c(NC(=O)c3ccc(C)cc3C)n[nH]c1-2 [Example A35-M2-B33]	
2200 nM	Cc1ccc(C(=O)Nc2n[nH]c3c2CCn2cc(C(=O)N4CCCCC4)cc2-3)c(C)c1 [Example A35-M1-B42]	
1380 nM	CCCN1CCN(C(=O)c2cc3n(c2)CCc2c(NC(=O)c4ccccc4Cl)n[nH]c2-3)CC1 [Example A5-M1-B32]	
3250 nM	CC(C)NC(=O)c1cc2n(c1)CCc1c(NC(=O)c3ccccc3Cl)n[nH]c1-2 [Example A5-M1-B10]	
3170 nM	CC(C)CNC(=O)c1cc2n(c1)CCCc1c(NC(=O)C(C)C)n[nH]c1-2 [Example A27-M2-B39]	
2850 nM	Cc1ccc(C(=O)Nc2n[nH]c3c2CCn2cc(C(=O)NCC(C)C)cc2-3)c(C)c1 [Example A35-M1-B39]	
630 nM	Cc1ccccc1C(=O)Nc1n[nH]c2c1CCn1cc(C(=O)N3CCCC3)cc1-2 [Example A21-M1-B8]	IC50 [2]: 4940 nM
2160 nM	O=C(Nc1n[nH]c2c1CCn1cc(C(=O)N3CCSCC3)cc1-2)c1ccccc1Cl [Example A5-M1-B38]	
2820 nM	O=C(NCC1CC1)c1cc2n(c1)CCCc1c(NC(=O)c3c(Cl)cccc3Cl)n[nH]c1-2 [Example A38-M2-B41]	
4710 nM	O=C(NC1CC1)c1cc2n(c1)CCc1c(NC(=O)c3ccccc3Cl)n[nH]c1-2 [Example A5-M1-B30]	
2400 nM	CCC(C)NC(=O)c1cc2n(c1)CCc1c(NC(=O)c3ccccc3Cl)n[nH]c1-2 (centres unmarked) [Example A5-M1-B27]	
2040 nM	Cc1ccccc1C(=O)Nc1n[nH]c2c1CCn1cc(C(=O)N3CCSCC3)cc1-2 [Example A21-M1-B38]	IC50 [3]: 6300 nM
4120 nM	C=CCNC(=O)c1cc2n(c1)CCc1c(NC(=O)c3ccccc3Cl)n[nH]c1-2 [Example A5-M1-B36]	
890 nM	Cc1ccccc1C(=O)Nc1n[nH]c2c1CCn1cc(C(=O)N3CCC(N4CCCCC4)CC3)cc1-2 [Example A21-M1-B34]	IC50 [2]: 5340 nM; IC50 [3]: 5060 nM
3510 nM	O=C(NCCN1CCCCC1)c1cc2n(c1)CCCc1c(NC(=O)c3ccccc3Cl)n[nH]c1-2 [Example A5-M2-B31]	
4840 nM	O=C(NCc1ccccn1)c1cc2n(c1)CCCc1c(NC(=O)c3ccccc3Cl)n[nH]c1-2 [Example A5-M2-B26]	
1430 nM	O=C(Nc1n[nH]c2c1CCn1cc(C(=O)N3CCOCC3)cc1-2)c1ccccc1Cl [Example A5-M1-B7]	
